Assay results reported in patent publication US8883963B2 (Cadila Healthcare Limited, priority 2007, dated 2014).

How the values were obtained:
[1] = molecular target: T1, Human GLP-1 receptor (Homo sapiens, UniProt P43220); assay: In vitro Human GLP-1 R agonist activity (cyclic AMP determination) in CHO/human GLP1R cells; format: cell-based
T1 construct: The full-length cDNA was cloned in pcDNA3.1(+); expressed in transfected cells

[2] = molecular target: T2, human glucagon receptor (Homo sapiens, UniProt P47871); assay: In vitro human glucagon antagonist activity (inhibition of cAMP production) in CHO/human glucagon R cells; format: cell-based; details: with saturated concentration of glucagon peptide
T2 construct: The full-length cDNA was cloned in pcDNA3.1 (Invitrogen); expressed in transfected cells

[3] = molecular target: DPP IV (Homo sapiens, UniProt P27487); assay: Stability against DPP IV enzyme; format: in vitro ADME; details: 37° C.; for % degradation of peptidomimetics in 24 h when incubated with DPP-IV enzyme: 2 μM peptidomimetic; for half-life at 2 μM: DPP IV enzyme, pH 7.8, 2 μM peptidomimetic, read-out: half-life (t1/2) when incubated with DPP-IV enzyme
Experimental: (§1) Reactions were terminated by the addition of TFA/H2O (15 mL, 10% (v/v)). […] The column was equilibrated with TFA/H20, at a flow rate of 1 mL/min.

[4] = Stability in human plasma; format: in vitro ADME; details: 2 μM peptidomimetic, pooled human plasma, 37° C.; for half-life at 2 μM: pH 7.8, read-out: half-life (t1/2) when incubated with human plasma
Experimental: as §1

[5] = Stability in simulated gastric fluid; format: in vitro ADME; details: 2 μM peptidomimetic, simulated gastric fluid pH 1.5, 37° C.; for half-life at 2 μM: read-out: half-life (t1/2) when incubated with simulated gastric fluid
Experimental: as §1

[6] = Stability in simulated intestinal fluid; format: in vitro ADME; details: 2 μM peptidomimetic, simulated intestinal fluid pH 7.5, 37° C.; for half-life at 2 μM: read-out: half-life (t1/2) when incubated with simulated intestinal fluid
Experimental: as §1

[7] = Stability in liver microsomes; format: in vitro ADME; details: 2 μM peptidomimetic, human liver microsomes, 37° C.; for half-life at 2 μM: pH 7.8, read-out: half-life (t1/2) when incubated with liver microsomes
Experimental: as §1

Chain of DPP IV (P27487 whole entry, species assumed): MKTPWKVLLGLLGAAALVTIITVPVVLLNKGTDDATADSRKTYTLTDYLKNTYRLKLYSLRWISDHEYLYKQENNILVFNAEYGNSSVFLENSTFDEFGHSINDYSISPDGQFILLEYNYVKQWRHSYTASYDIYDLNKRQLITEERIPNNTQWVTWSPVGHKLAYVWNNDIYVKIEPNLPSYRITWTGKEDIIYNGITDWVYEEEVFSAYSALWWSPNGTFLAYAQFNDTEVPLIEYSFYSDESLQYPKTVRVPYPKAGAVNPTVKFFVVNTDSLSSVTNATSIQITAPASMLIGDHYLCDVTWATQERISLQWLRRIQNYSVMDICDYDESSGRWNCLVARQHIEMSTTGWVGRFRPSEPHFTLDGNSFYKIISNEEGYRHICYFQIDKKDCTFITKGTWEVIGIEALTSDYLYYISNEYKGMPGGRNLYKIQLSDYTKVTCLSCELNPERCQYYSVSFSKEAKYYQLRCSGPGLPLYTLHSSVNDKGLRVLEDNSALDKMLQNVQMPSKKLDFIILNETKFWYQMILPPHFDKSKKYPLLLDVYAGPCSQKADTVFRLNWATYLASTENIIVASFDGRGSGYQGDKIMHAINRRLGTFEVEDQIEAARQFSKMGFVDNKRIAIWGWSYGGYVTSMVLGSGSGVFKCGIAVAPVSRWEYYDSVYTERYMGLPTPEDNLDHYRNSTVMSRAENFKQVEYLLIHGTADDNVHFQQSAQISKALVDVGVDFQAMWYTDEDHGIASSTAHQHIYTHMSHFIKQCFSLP
T2 sequence (P47871 26-477): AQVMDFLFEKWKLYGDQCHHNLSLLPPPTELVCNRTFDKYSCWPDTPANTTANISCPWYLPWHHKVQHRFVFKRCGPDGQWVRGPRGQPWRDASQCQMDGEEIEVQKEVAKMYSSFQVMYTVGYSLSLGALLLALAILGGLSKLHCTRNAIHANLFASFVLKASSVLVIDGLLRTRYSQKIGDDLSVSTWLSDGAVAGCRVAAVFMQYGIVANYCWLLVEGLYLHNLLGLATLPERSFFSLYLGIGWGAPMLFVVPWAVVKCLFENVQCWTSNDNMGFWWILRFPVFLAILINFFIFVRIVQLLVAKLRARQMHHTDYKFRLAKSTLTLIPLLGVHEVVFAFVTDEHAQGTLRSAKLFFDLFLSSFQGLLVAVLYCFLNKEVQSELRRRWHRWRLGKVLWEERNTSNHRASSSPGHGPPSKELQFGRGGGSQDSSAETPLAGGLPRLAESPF
T1 sequence (P43220 24-463): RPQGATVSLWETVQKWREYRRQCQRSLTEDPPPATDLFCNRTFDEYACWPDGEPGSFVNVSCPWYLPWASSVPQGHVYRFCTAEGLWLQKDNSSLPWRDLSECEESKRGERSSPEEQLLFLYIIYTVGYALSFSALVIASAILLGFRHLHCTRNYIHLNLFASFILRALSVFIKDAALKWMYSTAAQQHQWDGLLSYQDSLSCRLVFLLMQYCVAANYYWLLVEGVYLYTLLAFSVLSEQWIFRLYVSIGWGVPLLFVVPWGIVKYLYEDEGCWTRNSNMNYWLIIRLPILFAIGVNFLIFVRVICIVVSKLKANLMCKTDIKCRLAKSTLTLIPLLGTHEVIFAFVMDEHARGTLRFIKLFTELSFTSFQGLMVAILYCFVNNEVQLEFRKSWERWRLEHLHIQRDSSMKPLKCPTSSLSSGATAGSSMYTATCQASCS

SMILES | Human GLP-1 R activity (cAMP release), % activity with respect to control ([1]; 1 nM test compound) [%] | Human GLP-1 R activity (cAMP release), % activity with respect to control ([1]; 10 nM test compound) [%] | Human GLP-1 R activity (cAMP release), % activity with respect to control ([1]; 100 nM test compound) [%] | Human GLP-1 R activity (cAMP release), % activity with respect to control ([1]; 1 μM test compound) [%] | Human GLP-1 R activity (cAMP release), % activity with respect to control ([1]; 10 μM test compound) [%] | Human Glucagon receptor antagonistic activity shown as inhibition of cAMP production of Glucagon peptide ([2]; 1 nM test compound) [pmol/ml/μg prt] | Human Glucagon receptor antagonistic activity shown as inhibition of cAMP production of Glucagon peptide ([2]; 10 nM test compound) [pmol/ml/μg prt] | Human Glucagon receptor antagonistic activity shown as inhibition of cAMP production of Glucagon peptide ([2]; 100 nM test compound) [pmol/ml/μg prt] | Human Glucagon receptor antagonistic activity shown as inhibition of cAMP production of Glucagon peptide ([2]; 1 μM test compound) [pmol/ml/μg prt] | Human Glucagon receptor antagonistic activity shown as inhibition of cAMP production of Glucagon peptide ([2]; 10 μM test compound) [pmol/ml/μg prt] | % degradation of peptidomimetics in 24 h when incubated with DPP-IV enzyme [3] [%] | half-life at 2 μM [3] [h] | % degradation of peptidomimetics in 24 h when incubated with human plasma [4] [%] | half-life at 2 μM [4] [h] | half-life (t1/2) when incubated with simulated gastric fluid [5] | % degradation of peptidomimetics in 24 h when incubated with simulated gastric fluid [5] [%] | half-life (t1/2) when incubated with simulated intestinal fluid [6] | % degradation of peptidomimetics in 24 h when incubated with simulated intestinal fluid [6] [%] | % degradation of peptidomimetics in 24 h when incubated with liver microsomes [7] [%] | half-life at 2 μM [7] [h] | other results
CCc1cc(OC)ccc1-c1ccc(CC(NC(=O)[C@H](CC(=O)O)NC(=O)[C@H](CO)NC(=O)[C@@H](NC(=O)C(C)(Cc2ccccc2F)NC(=O)[C@@H](NC(=O)CNC(=O)C(CCC#N)NC(=O)C(C)(C)NC(=O)[C@@H](N)Cc2c[nH]cn2)[C@H](C)O)[C@H](C)O)C(=S)NC(CCCc2ccccc2F)C(N)=O)cc1 (single isomer, unassigned) [compound 168] | 96 ± 0.09 | 99 ± 0.07 | 99 ± 0.04 | 99 ± 0.01 | 99 ± 0.08 | 21 ± 0.11 | 19 ± 0.02 | 18 ± 0.07 | 18 ± 0.03 | 16 ± 0.02 | 72 | 9 | 70 | 8 | (8) h | 12 | (6) h | 42 | 78 | 1 | –
CCc1cc(OC)ccc1-c1ccc(CC(NC(=O)[C@H](CC(=O)O)NC(=O)[C@H](CO)NC(=O)[C@@H](NC(=O)C(C)(Cc2ccccc2F)NC(=O)[C@@H](NC(=O)CNC(=O)C(CCC#N)NC(=O)C(C)(C)NC(=O)[C@H](Cc2c[nH]cn2)NC(C)=O)[C@@H](C)O)[C@@H](C)O)C(=O)NC(CCCc2ccccc2)C(N)=O)cc1 (single isomer, unassigned) [compound 205] | 96 ± 0.09 | 99 ± 0.07 | 99 ± 0.04 | 99 ± 0.01 | 99 ± 0.08 | 4 ± 0.16 | 2 ± 0.11 | 0 | 0 | 0 | 00 | > 24 | 00 | > 24 | – | 00 | – | 00 | 33 | – | half-life at 2 μM [5]: > 24 h; half-life at 2 μM [6]: > 24 h; half-life (t1/2) when incubated with liver microsomes [7]: (5) h
CCc1cc(OC)ccc1-c1ccc(CC(NC(=O)[C@H](CC(=O)O)NC(=O)[C@H](CO)NC(=O)[C@@H](NC(=O)C(C)(Cc2ccccc2F)NC(=O)[C@@H](NC(=O)CNC(=O)C(CCC#N)NC(=O)C(C)(C)NC(=O)[C@H](Cc2c[nH]cn2)NC(C)=O)[C@@H](C)O)[C@@H](C)O)C(=O)NC(CCCc2ccccc2F)C(N)=O)cc1 (single isomer, unassigned) [compound 207] | 40 ± 0.11 | 81 ± 0.09 | 89 ± 0.06 | 96 ± 0.14 | 99 ± 0.19 | 0 | 0 | 0 | 0 | 0 | 00 | > 24 | 00 | > 24 | – | 00 | – | 00 | 26 | – | half-life at 2 μM [5]: > 24 h; half-life at 2 μM [6]: > 24 h; half-life (t1/2) when incubated with liver microsomes [7]: (5) h
CCc1cc(OC)ccc1-c1ccc(CC(NC(=O)[C@H](CC(=O)O)NC(=O)[C@H](CO)NC(=O)[C@@H](NC(=O)[C@H](Cc2ccccc2)NC(=O)[C@@H](NC(=O)CNC(=O)[C@H](CCC(N)=O)NC(=O)C(C)(C)NC(=O)[C@@H](N)Cc2c[nH]cn2)[C@@H](C)O)[C@@H](C)O)C(=O)NC(CCCc2cccc(Cl)c2)C(N)=O)cc1 (single isomer, unassigned) [compound 19] | 99 ± 0.12 | 99 ± 0.08 | 99 ± 0.11 | 99 ± 0.12 | 99 ± 0.16 | 0 | 0 | 0 | 0 | 0 | 86 | 9 | 70 | 8 | (8) h | 15 | (6) h | 41 | 77 | 1 | –
